Results: patent US20220308062A1, “METHODS FOR PREDICTING DRUG RESPONSIVENESS IN SAMPLES FROM CANCER SUBJECTS” (Board of Regents, The University of Texas System, priority 2019, published 2022)

Experiments:
[1] = test system: patients with advanced tumors; conditions: early results, ref [21]; cited from earlier work
A549 and H2009 cells = test: CyTOF profiling of lung cancer cell lines; assay type: cell-based, human
Method: Cytometry by time of flight mass spectrometry (CyTOF). Antibodies were conjugated according to the manufacturer's instructions (Fluidigm, South San Francisco, Calif.) or purchased in pre-conjugated forms from the supplier (Fluidigm). […] The cells were harvested and stained with cisplatin (Fluidigm) and metal-conjugated surface antibodies sequentially for viability and surface staining. After fixation and permeabilization, the intracellular staining with metal-conjugated antibodies was performed. The cells were then labeled with an iridium-containing DNA intercalator (^191Ir^+, ^193Ir^+) to identify cell events before analysis on a Helios mass cytometer (Fluidigm). Signals were bead-normalized using EQ Four Element Calibration Beads (Fluidigm). Signals of samples were normalized using CyTOF software (Version 6.7.1014, Fluidigm). The generated files underwent signal cleanup and filtering for live/dead cells using Cytobank (https://www.cytobank.org/, Cytobank Inc.) and download gated Flow Cytometry Standard (FCS) file for further analysis using Cytofkit based on PhenoGraph algorithm, which was implemented in R and freely available from the Bioconductor website (https://bioconductor.org/packages/cytofkit/). CyTOF data was visualized using t-distributed stochastic neighbor embedding (t-SNE) algorithm and plotted on a continuum of protein expression with phenotypically related cells clustered together.
(§1) Cytometry by time-of-flight (CyTOF). Antibodies were conjugated in-house according to the manufacturer's instructions or purchased in pre-conjugated forms from the supplier (Fluidigm; Table 5). Single cells from cell lines, tumors, or PBMCs were harvested and stained with cisplatin and metal-conjugated surface antibodies sequentially for viability and surface staining. After fixation and permeabilization, cells were stained with metal-conjugated antibodies. The cells were then labeled with an iridium-containing DNA intercalator (^191Ir^+ or ^193Ir^+) for identification of cell events before analysis on a Helios mass cytometer. Signals were bead-normalized using EQ Four Element Calibration Beads.
Signals of samples were normalized using CyTOF software (Version 6.7.1014, Fluidigm). The generated files underwent signal cleanup and filtering for single cells using Cytobank (https://www.cytobank.org/). The gated Flow Cytometry Standard (FCS) file were downloaded for further analysis using Cytofkit. The PhenoGraph clustering algorithm in Cytofkit was implemented in R from the Bioconductor website (https://bioconductor.org/packages/cytofkit/). […] Epithelial and mesenchymal indices were calculated based on the average Z-score of epithelial and mesenchymal markers. […]

two other TAM family = conditions: refs [21, 22]; concentration not given; cited from earlier work
A549 lung cancer cells = test: Luminex multi-cytokine assay; assay type: cell-based, human; conditions: A549, 40 nmol/L, 24, 48, 72 hr
Method: Luminex multi-cytokine assay. […] Condition medium was harvested in 24, 48 and 72 hr after incubation. Condition medium was then subjected to a cytokine assay by using MILLIPLEX® MAP Human Cytokine Panel 1 (38 Plex) (Millipore, HCYTA-60K-PXBK38) in Luminex™ FLEXMAP 3D™ Instrument System.

A549 cells = test: Proliferation assay (IncuCyte ZOOM), A549; assay type: cell-based; conditions: Homo sapiens, read-out: IC50 from proliferation curves
Method: Analysis was performed using IncuCyte ZOOM (Essen BioScience) with images acquired every 3 hr for up to 72 hr. Four images (proliferation) and one image (wound healing) were captured per well for each time point. Data were normalized to controls, and values for 50% effective concentration were calculated using Prism V7.0 (GraphPad software, San Diego, Calif.).
In vitro phenotypic assay. […] Proliferation and migration curves were generated using IncuCyte ZOOM (Essen BioScience) with images acquired every 3 hr over a 72 hr timeframe. Images were captured per well for each time point. Data were normalized to controls, and values for 50% inhibitory concentration were calculated using Prism V8.0 (GraphPad software).

[2] = test system: PMA-stimulated U937 macrophages cocultured with A549 or H2009; test: U937 coculture with lung cancer cells, CyTOF; assay type: cell-based, human
Text: as §1, with “Materials and methods. U937 coculture with lung cancer cells. […] The cells were harvested and fixed to process CyTOF staining.” for “Cytometry by time-of-flight (CyTOF).”, “(Fluidigm).” for “(Fluidigm; Table 5).”, “lines” for “lines, tumors, or PBMCs”, “(191Ir+” for “(^191Ir^+”, “193Ir+)” for “^193Ir^+)”
Signals of samples were normalized using CyTOF software (Version 6.7.1014, Fluidigm). The generated files underwent signal cleanup and filtering for single cells using Cytobank (https://www.cytobank.org/). Macrophage population was gated out based on CD45 expression to generate Flow Cytometry Standard (FCS) file. The gated FCS file were downloaded for further analysis using Cytofkit. The PhenoGraph clustering algorithm in Cytofkit was implemented in R from the Bioconductor website (https://bioconductor.org/packages/cytofkit/). CyTOF data of macrophage were clustered and visualized using t-distributed stochastic neighbor embedding (t-SNE) algorithm based on normalized expression levels (Z-score) of 4 markers (CD14, CD16, CD163 and CD86).

CN1CCN(Cc2ccc(Nc3ncc(Cl)c(Nc4ccccc4S(=O)(=O)N(C)C)n3)cc2)CC1 [TP-0903]
tolerability in patients [1]: well tolerated | phosphorylated STAT3 (pSTAT3) levels (CyTOF) (A549 and H2009 cells; A549, 40 nmol/L): dramatically increased | SMAD4 (CyTOF) (A549 and H2009 cells; A549 subpopulations #6-8, 40 nmol/L): suppressed | JAK1-pSTAT3 expression (CyTOF) (A549 and H2009 cells; H2009 subpopulations #15 and 16 after treatment): amplified | CD133 (CyTOF) (A549 and H2009 cells; cell lines, 40 nmol/L): elevated | inhibition of two other TAM family (two other TAM family): 80% | IL-8, VEGF, and IL-11 secretion (A549 lung cancer cells): decreased | IC50 (A549 cells): 31.6 nM | high CD163 subpopulations ([2]; 20, 40 and 80 nmol/L, increasing concentration): decreased | CD14high/CD16+/CD163high/CD86high macrophage subtype proportion ([2]; 72 hr coculture): decreased | SMAD2 in CD14high/CD16+/CD163high/CD86high subtype ([2]; 72 hr coculture): down-regulated
